Read-outs that look alike come from different tables or passages of the source.
Tests used:
souris ob/ob = experiment: Hypoglycaemic activity in a non-insulin-dependent diabetes (NIDDM) model, ob/ob mice; format: in vivo; settings: oral, 4 days, base 100, reached at the dose given
Description: A/ Etude de l'activité des composés de l'invention sur un modèle de diabète non insulino-dépendant (NIDDM).
Les animaux (souris ob/ob) sont traités chaque jour, pendant 4 jours, en administrant par voie orale, les composés de l'invention en suspension dans une solution à 20 % de gomme du Sénégal. Avant et après traitement, soit à J0 et à J5, le sang est prélevé par ponction du sinus orbital et la glycémie est déterminée. Le tableau 1 présente les doses des différents produits à administrer pour obtenir le même effet hypoglycémiant (base 100).

rats Zucker Fa/Fa mâles = experiment: Model of reduced glucose tolerance with hyperinsulinaemia and hyperlipaemia, male Zucker Fa/Fa rats; format: in vivo; settings: 5 mg/kg/jour oral for 10 days; for Glycémie (%) / Plasma insuline (%): blood on day 11, control = 100; for Poids ΔP% J₁₁-J₁: control = +100; for AGL (%): plasma free fatty acids; for AGL (%) / TG (%): control = 100; for TG (%): plasma triglycerides
Experimental: B/ Etude de l'activité des composés de l'invention sur un modèle de tolérance au glucose diminuée associée à une hyperinsulinémie et une hyperlipémie .
Les animaux (rats Zucker Fa/Fa mâles) sont traités, chaque jour, pendant 10 jours, en administrant, par voie orale, les composés de l'invention à la dose de 5 mg/kg/jour en suspension dans une solution à 20 % de gomme du Sénégal. Le 11ème jour, les animaux sont sacrifiés et le sang recueilli afin de déterminer la glycémie, les triglycérides plasmatiques et l'insuline immuno-réactive. D'autre part, les animaux sont pesés avant et après traitement.
Dans ces conditions, les composés de l'invention n'ont pas d'influence sur le taux de glucose circulant mais diminuent le taux de triglycérides (TG) et d'acides gras libres plasmatiques (AGL) ainsi que celui de l'insuline immuno-réactive. Cette activité est égale ou supérieure à celle d'autres dérivés de thiazolidinedione de référence.

rats SDCD mâles = settings: rat, in vivo
Description: Administrés per os à des rats SDCD mâles pesant 175 g les produits sont sans effet sur les éléments figurés du sang et le volume plasmatique, à la différence de la pioglitazone : […]

Compound: O=C1NC(=O)C(Cc2ccc(CCNC(=O)c3ccccc3O)cc2)S1 (racemic) [Exemple 3, (R,S) 5-{4-[2-(salicyloyamino) éthyl]benzyl} thiazolidine-2,4-dione]
- Pouvoir hypoglycémiant (souris ob/ob): 100

Compound: O=C(CC(c1ccccc1)c1ccccc1)NCCc1ccc(CC2SC(=O)NC2=O)cc1 (racemic) [Exemple 6, (R,S) 5-{4-[2-(3,3-diphénylpropionamido)éthyl]benzyl}thiazolidine-2,4-dione]
- Pouvoir hypoglycémiant (souris ob/ob): 100

Compound: COc1ccc(OC)c(C(=O)NCCc2ccc(CC3SC(=O)NC3=O)cc2)c1 (racemic) [Exemple 7, (R,S) 5-{4-[2-(2,5-diméthoxybenzamido)éthyl]benzyl}thiazolidine-2,4-dione]
- Pouvoir hypoglycémiant (souris ob/ob): 100

Compound: O=C1NC(=O)C(Cc2ccc(CCNC(=O)c3ccco3)cc2)S1 (racemic) [Exemple 14, (R,S) 5-{4-[2-(fur-2-ylcarbonylamino)éthyl]benzyl}thiazolidine-2,4-dione]
- Pouvoir hypoglycémiant (souris ob/ob): 100

Compound: Cc1cc(C(=O)NCCc2ccc(CC3SC(=O)NC3=O)cc2)no1 (racemic) [Exemple 15, (R,S) 5-{4-[2-(5-méthyl 1,2-oxazol-3-ylcarbonylamino)éthyl]benzyl} thiazolidine-2,4-dione]
- Pouvoir hypoglycémiant (souris ob/ob): 100

Compound: O=C1NC(=O)C(Cc2ccc(CCNC(=O)c3cnccn3)cc2)S1 (racemic) [Exemple 25, (R,S) 5-{4-[2-(pyrazin-2-ylcarbonylamino)éthyl]benzyl}thiazolidine-2,4-dione]
- Pouvoir hypoglycémiant (souris ob/ob): 100

Compound: CN(C)c1ccccc1C(=O)NCCc1ccc(CC2SC(=O)NC2=O)cc1 (racemic) [Exemple 28, (R,S) 5-{4-[2-(2-diméthylaminobenzamido)éthyl]benzyl}thiazolidine-2,4-dione]
- Pouvoir hypoglycémiant (souris ob/ob): 100
- Glycémie (%) (rats Zucker Fa/Fa mâles): 99%
- Plasma insuline (%) (rats Zucker Fa/Fa mâles): 75%
- Poids ΔP% J₁₁-J₁ (rats Zucker Fa/Fa mâles): +103%
- AGL (%) (rats Zucker Fa/Fa mâles): 110%
- TG (%) (rats Zucker Fa/Fa mâles): 89%

Compound: COc1ccc(Cl)cc1C(=O)NCCCc1ccc(CC2SC(=O)NC2=O)cc1 (racemic) [Exemple 33, (R,S) 5-{4-[3-(2-méthoxy-5-chlorobenzamido)propyl]benzyl}thiazolidine-2,4-dione]
- Pouvoir hypoglycémiant (souris ob/ob): 100

Compound: O=C1NC(=O)C(Cc2ccc(CCNC(=O)c3cccs3)cc2)S1 (racemic) [Exemple 35, (R,S) 5-{4-[2-(thién-2-ylcarbonylamino)éthyl]benzyl}thiazolidine-2,4-dione]
- Pouvoir hypoglycémiant (souris ob/ob): 100

Compound: COc1ccc(Cl)cc1C(=O)NCc1ccc(CC2SC(=O)NC2=O)cc1 (racemic) [Exemple 36, (R,S) 5-{4-[(5-chloro-2-méthoxybenzamido)méthyl]benzyl}thiazolidine-2,4-dione]
- Pouvoir hypoglycémiant (souris ob/ob): 100

Compound: CC(C)(C)c1cc(OCCc2ccc(CC3SC(=O)NC3=O)cc2)cc(C(C)(C)C)c1O (racemic) [Exemple 41, (R,S) 5-{4-[2-(3,5-di-tert-butyl-4-hydroxyphénoxy)éthyl]benzyl} thiazolidine-2,4-dione]
- Pouvoir hypoglycémiant (souris ob/ob): 100

Compound: COc1ccc(C=CC(=O)NCCc2ccc(CC3SC(=O)NC3=O)cc2)cc1OC (racemic) [Exemple 43, (R,S) 5-{4-[2-(3-(3,4-diméthoxyphényl)prop-2-énoylamino)éthyl]benzyl} thiazolidine-2,4-dione]
- Pouvoir hypoglycémiant (souris ob/ob): 100

Compound: O=C(C=Cc1ccc2c(c1)OCO2)NCCc1ccc(CC2SC(=O)NC2=O)cc1 (racemic) [Exemple 44, (R,S) 5-{4-[2-(3-(3,4-méthylènedioxyphényl)prop-2-énoylamino)éthyl]benzyl} thiazolidine-2,4-dione]
- Pouvoir hypoglycémiant (souris ob/ob): 100

Compound: O=C1NC(=O)C(Cc2ccc(CCNC(=O)C3c4ccccc4Oc4ccccc43)cc2)S1 (racemic) [Exemple 45, (R,S) 5-{4-[2-(xanthén-9-ylcarbonylamino)éthyl]benzyl}thiazolidine-2,4-dione]
- Pouvoir hypoglycémiant (souris ob/ob): 100

Compound: Cc1cccc(C)c1C(C(=O)NCCc1ccc(CC2SC(=O)NC2=O)cc1)c1c(C)cccc1C (racemic) [Exemple 46, (R,S) 5-{4-[2-(2,2-bis(2,6-diméthylphényl)acétylamino)éthyl]benzyl} thiazolidine-2,4-dione]
- Pouvoir hypoglycémiant (souris ob/ob): 100

Compound: CC1(COc2ccc(CC3SC(=O)NC3=O)cc2)CCCCC1 (stereo not drawn) [Ciglitazone, reference compound]
- Pouvoir hypoglycémiant (souris ob/ob): 100

Compound: COc1ccc(Cl)cc1C(=O)NCCc1ccc(CC2SC(=O)NC2=O)cc1 (stereo not drawn) [Exemple 1, 5-{4-[2-(2-méthoxy 5-chlorobenzamido) éthyl]benzyl} thiazolidine 2,4-dione]
- Pouvoir hypoglycémiant (souris ob/ob): 100
- Glycémie (%) (rats Zucker Fa/Fa mâles): 113%
- Plasma insuline (%) (rats Zucker Fa/Fa mâles): 71%
- Poids ΔP% J₁₁-J₁ (rats Zucker Fa/Fa mâles): +112%
- AGL (%) (rats Zucker Fa/Fa mâles): 83%
- TG (%) (rats Zucker Fa/Fa mâles): 94%
- Globules blancs (rats SDCD mâles; 100 mg/kg): - 6%
- Globules rouges (rats SDCD mâles; 100 mg/kg): - 2%
- Hématocrite (rats SDCD mâles; 100 mg/kg): + 11%
- Hémoglobine (rats SDCD mâles; 100 mg/kg): + 11%
- Globules blancs (rats SDCD mâles; 250 mg/kg): - 4%
- Globules rouges (rats SDCD mâles; 250 mg/kg): - 11%
- Hématocrite (rats SDCD mâles; 250 mg/kg): + 4%
- Hémoglobine (rats SDCD mâles; 250 mg/kg): + 4%

Compound: O=C1NC(=O)C(Cc2ccc(CCN3C(=O)c4ccccc4C3=O)cc2)S1 (stereo not drawn) [Exemple 4, 5-{4-[2-(phtalimido)éthyl]benzyl}thiazolidine-2,4-dione]
- Pouvoir hypoglycémiant (souris ob/ob): 100
- Glycémie (%) (rats Zucker Fa/Fa mâles): 108%
- Plasma insuline (%) (rats Zucker Fa/Fa mâles): 72%
- Poids ΔP% J₁₁-J₁ (rats Zucker Fa/Fa mâles): +132%
- AGL (%) (rats Zucker Fa/Fa mâles): 108%
- TG (%) (rats Zucker Fa/Fa mâles): 78%

Compound: COc1ccc(Cl)cc1C(=O)NC[C@@H](O)c1ccc(C[C@H]2SC(=O)NC2=O)cc1 [Exemple 40, (R,S) 5-{4-[1-hydroxy-2-(5-chloro-2-méthoxybenzamido)éthyl]benzyl} thiazolidine-2,4-dione]
- Pouvoir hypoglycémiant (souris ob/ob): 100

Compound: CCc1ccc(CCOc2ccc(CC3SC(=O)NC3=O)cc2)nc1 (stereo not drawn) [Pioglitazone, reference compound]
- Glycémie (%) (rats Zucker Fa/Fa mâles): 115%
- Plasma insuline (%) (rats Zucker Fa/Fa mâles): 49%
- Poids ΔP% J₁₁-J₁ (rats Zucker Fa/Fa mâles): +320%
- AGL (%) (rats Zucker Fa/Fa mâles): 57%
- TG (%) (rats Zucker Fa/Fa mâles): 35%
- Globules blancs (rats SDCD mâles; 100 mg/kg): - 46%
- Globules rouges (rats SDCD mâles; 100 mg/kg): - 37%
- Hématocrite (rats SDCD mâles; 100 mg/kg): - 26%
- Hémoglobine (rats SDCD mâles; 100 mg/kg): - 29%

Source: patent publication EP0593348A1, “Thiazolidine dione derivatives, process for their preparation and pharmaceutical compositions containing them” (ADIR ET COMPAGNIE, priority 1992, dated 1994)
